The record followed here is patent publication US8637556B2, “Linked Myc-max small molecule inhibitors” (University of Pittsburgh—Of the Commonwealth System of …, priority 2009, dated 2014).

In assay [1] the test system is HL60 promyelocytic leukemia cells. Kind of assay: HL60 cell growth inhibition (MTT assay). The assay is classed as cell-based. The following applies: Homo sapiens, HL-60. How it is done:
These assays were performed as previously described using HL60 promyelocytic leukemia cells and Daudi Burkitt lymphoma cells, each of which expresses high levels of endogenous c-Myc (Wang, H. et al. Mol. Cancer Ther. 6, 2399-408 (2007)). As controls for non-specific effects of bivalent compounds, we utilized a c-Myc nulllizygous strain of rat fibroblasts (Mateyak, M. K., et al. Cell Growth & Differentiation 8, 1039-48 (1997)) expressing the c-Myc target genes MT-MC1 and HMGAIb, each of which restores a normal growth rate as well as the TGR1 fibroblast line from which the nullizygous line was derived (Wang, H. et al. Mol. Cancer Ther. 6, 2399-408 (2007); Mateyak, M. K., et al. Cell Growth & Differentiation 8, 1039-48 (1997); and Rothermund, K. et al. Cancer Research 65, 2097-107 (2005)). […] Cell quantification was performed on triplicate wells over the ensuing 4-5 days without changing the medium by measuring the absorbance at 490 nm using the MTT assay (Mosmann, T. Journal of Immunological Methods 65, 55-63 (1983)). IC50 values were estimated from linear regression of the inhibition data at the third day of each experiment.
We evaluated the efficacy of the linked compounds 11, 12, 13, 16, 17, 18 in inhibiting the c-Myc-Max interaction by measuring the binding of a target DNA sequence (E-Box) by the protein heterodimers in an electrophoretic mobility shift assay (EMSA). […] A fluorinated substitute of 14, 24, the choice of which was based upon the results of structure activity relationship studies described in Wang, H. et al. (Mol. Cancer Ther. 6, 2399-408 (2007)), was employed at this purpose (Muller, K., et al. Science 317, 1881-6 (2007) and Kirk, K. L. Current Topics in Medicinal Chemistry 6, 1447-56 (2006)).
Background: Formazan colour is commonly taken as a measure of viable cells.

In assay [2] the target is T1, c-Myc353-437 (monomeric c-Myc bHLH-ZIP) (Homo sapiens, UniProt P01106).
T1 construct: recombinant monomeric c Myc bHLH-ZIP (amino acids 353-437); 6xHis with TEV site (N, cleaved yes); made in house; host or cells: E. coli BL21DE3(pLysS)
T1 sequence (P01106 368-452): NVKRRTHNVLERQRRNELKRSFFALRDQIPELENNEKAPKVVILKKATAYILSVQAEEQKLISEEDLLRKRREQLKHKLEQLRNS
Kind of assay: Fluorescence polarization titration, c-Myc bHLH-ZIP binding. The conditions noted are these: Table 1; FP of nitrobenzofurazan moiety, c-Myc353-437; read-out: KD (c-Myc affinity, bivalent). The text has this:
A c-Myc353-437 full-length bHLH-ZIP domain and its truncated version c-Myc390-439 were produced from the c-Myc/pET SKB3 construct, kindly supplied by Dr. S. K. Nair (University of Illinois, Urbana-Champaign), by insertion into the pET151D vector, encoding an N-terminal hexahistidine (6× His), separated by a TEV protease digestion site, with the TOPO® ligation system, and over-expressed in E. coli BL21DE3(pLysS). The 6× His tagged human Max isoform p21, with low homodimerization affinity^70, cloned into the pQE10 vector (Qiagen, Inc.), was over-expressed in E. coli M15(pRep4). Bacterial cultures were grown at 37° C. in LB medium to OD600≈0.8, then induced with 0.5 mM IPTG for 5 hours. Proteins were purified by Ni-agarose chromatography with a pH gradient elution. The 6× His tag of c-MYC353-437 and c-Myc390-439 was cleaved using TEV protease (the TEV protease was expressed in a pET24 vector [courtesy of S. K. Nair] and purified by Ni-agarose chromatography under native conditions). All the proteins were further purified by HPLC and lyophilized. Protein concentrations were determined by measurement of OD280. The synthetic peptide c-Myc363-381 is described in Follis, A. V., Hammoudeh, D. I., Wang, H., Prochownik, E & Metallo, S. J. Structural rationale for the coupled binding and unfolding of the c-Myc oncoprotein by small molecules. Chemistry & Biology 15, 1149-1155 (2008).
Samples were analyzed in a Photon Technology International QuantaMaster fluorimeter (Birmingham, N.J.) equipped with polymer sheet polarizers. Titration experiments were performed upon serial dilution of 1:1 equimolar solution of inhibitor and either c-Myc353-437, c-Myc390-439 or c-Myc363-381 in a 1×PBS buffer (137 mM NaCl, 2.7 mM KCl, 4.3 mM Na2HPO4, 1.4 mM KH2PO4, pH=7.4), 5% DMSO, over concentrations ranging between 200 μM and 1.5 nM. Excitation and emission wavelengths were independently determined for each inhibitor. Reported data represent the average of at least three independent experiments. Data were fit to a quadratic equation derived from the thermodynamic expression of binding equilibrium:
[formula] where [C]0 represents the total concentration of inhibitor and of c-Myc peptide. The value of KD was determined from the experimental polarization data by fitting to Eq. 2 using KaleidaGraph (Synergy Software, Reading, Pa.) where pol0 is the polarization in the absence of binding and Δpol is the total change in polarization (Park, S. H. & Raines, R. T. Fluorescence polarization assay to quantify protein-protein interactions. Methods in Molecular Biology 261, 161-6 (2004)).
[formula] Due to the very tight binding of some of the tested compounds, it was impossible to perform a full binding titration with an acceptable fluorescence intensity, therefore the polo parameter was experimentally determined from samples of each compound in the absence of c-Myc353-437 at a concentration of 25 μM. Binding specificity experiments were performed by monitoring the FP of 10 μM inhibitors solutions in the above-described buffer in the presence of equimolar p21 Max. […] Circular Dichroism.
Also in this case the c-Myc binding affinity was little affected by the introduction of the linker chain (Table 1, FIG. 11).
We then measured the affinity of the synthesized bivalent inhibitors, by monitoring the FP of the compounds nitrobenzofurazan moiety. […] The estimated free energy of binding of the bivalent compounds was roughly proportional to the sum of those of their monovalent components. In the thermodynamic analysis of multivalent binding a ΔG^s term is used to relate the free energy of binding of a multivalent compound to the sum of those of its monovalent components. This term implies the diverse energy contributions resulting from the linking of independent binding components. The ΔG^s term generally constitutes a negative contribution to the binding affinity of distinct binding components connected by a flexible linker to a given target.
Background: Polarisation of emitted light reports the rotation of a fluorescent probe.

Setting [3] is: Table 3, MTT, third day, read-out: Growth inhibition HL60.

Read-outs that look alike come from different tables or passages of the source. Bounds are passed on as bounds.

As to `CCc1ccc(/C=C2\SC(=O)N(CCCCCCNC(=O)c3ccccc3Nc3ccc([N+](=O)[O-])c4nonc34)C2=O)cc1` [compound 16, N-{6-[(5Z)-5-[(4-ethylphenyl)methylidene]-2,4-dioxo-1,3-thiazolidin-3-yl]hexyl}-2-[(7-nitro-2,1,3-benzoxadiazol-4-yl)amino]benzamide amine], the IC50 in assay [1] (HL60 cells, read-out: IC50) was in the range of 0.5 to 1 µM; in assay [1] (setting [3]) it was 0.5 to 0.7 µM. Also, the Kd in assay [2] was determined as 2.2 ± 0.2 nM.
For the compound `CCc1ccc(C=C2SC(=O)N(CCCCCCNC(=O)c3cccc(Nc4ccc([N+](=O)[O-])c5nonc45)c3)C2=O)cc1` [compound 17], in assay [1] (setting [3]), the IC50 was > 30 µM. In addition, the Kd in assay [2] is 110 ± 20 nM.
As for `O=C1NC(=S)SC1=Cc1ccc(C(=O)NCCCCCNC(=O)c2ccc(Nc3ccc([N+](=O)[O-])c4nonc34)cc2)cc1` [compound 13], the IC50 in assay [1] (setting [3]) was found to be 6 µM. In addition, the Kd in assay [2] was determined as 4.7 ± 0.8 nM.
Consider `O=C1NC(=S)S/C1=C\c1ccc(C(=O)NCCCCCNC(=O)c2cccc(Nc3ccc([N+](=O)[O-])c4nonc34)c2)cc1` [compound 12, N-[5-({3-[(7-nitro-2,1,3-benzoxadiazol-4-yl)amino]phenyl}formamido)pentyl]-4-{[(5Z)-4-oxo-2-sulfanylidene-1,3-thiazolidin-5-ylidene]methyl}benzamide], for which the IC50 in assay [1] (setting [3]) is > 30 µM. The Kd in assay [2] came out at 400 ± 100 nM.
